Measurements as given in US6291485A, “4,5-dihydro-[1H]-benz[g]indazole-3-carboxylic acid derivatives” (Teikoku Hormone Mfg. Co., Ltd., priority 1997, dated 2001).

Experiments:
[1] = molecular target: T1, ETA receptor (Sus scrofa, UniProt Q29010); experiment: binding of 125I-ET-1 to crude receptor membrane fraction from the porcine thoracic aorta (ETA); details: porcine thoracic aorta membranes, 125I-ET-1, 25° C., 120 minutes, pH 7.0
T1 construct: crude receptor membrane fraction from the porcine thoracic aorta; from tissue; host or cells: porcine thoracic aorta, crude membrane fraction
T1 sequence (Q29010 21-427): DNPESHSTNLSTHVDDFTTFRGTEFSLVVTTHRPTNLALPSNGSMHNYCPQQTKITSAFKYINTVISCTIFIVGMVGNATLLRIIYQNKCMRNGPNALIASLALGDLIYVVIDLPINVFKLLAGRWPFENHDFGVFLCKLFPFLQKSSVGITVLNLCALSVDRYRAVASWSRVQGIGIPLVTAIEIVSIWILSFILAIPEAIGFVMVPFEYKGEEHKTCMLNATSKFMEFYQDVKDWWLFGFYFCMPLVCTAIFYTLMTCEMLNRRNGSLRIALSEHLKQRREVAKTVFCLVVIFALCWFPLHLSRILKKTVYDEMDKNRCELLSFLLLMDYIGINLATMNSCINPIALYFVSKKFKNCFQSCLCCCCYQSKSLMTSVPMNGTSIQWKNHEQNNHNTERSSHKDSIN
Method: (§1) (1) Measurement of Antagonism to Endothelin Receptors
(§2) Among the endothelin (ET) receptor subtypes, the binding of ET to the ETA and ETB subtypes was measured by using a crude receptor membrane fraction from the porcine thoracic aorta and a crude receptor membrane fraction from the human placenta, respectively. The tissue (about 40 g) as washed, minced with scissors, and homogenized in 4 volumes of solution A [20 mM HEPES (N-2-hydroxyethylpiperazine-N'-2-ethanesulfonic acid), 3 mM EGTA (ethylene glycol bis(β-aminoethyl ether)-N,N,N',N'-tetraacetic acid), 5 mM EDTA (ethylenediaminetetraacetic acid), 2 μg/ml aprotinin, 3 μg/ml leupeptin, 3 μg/ml pepstatin A, 0.25 mg/ml bacitracin, 0.25 M sucrose] by means of an Ultra-turrax. The resulting homogenate was centrifuged at 8,000 g for 20 minutes, and the supernatant was further centrifuged at 80,000 g for 60 minutes. The precipitate was suspended in solution A and used as a crude receptor membrane fraction, which was divided into portions and stored in a frozen state at -70° C. As a radioligand, 325 Bq of ^125 I-ET-1 (81.4 TBq/mmol; manufactured by DuPont-New England Nuclear, Boston, Mss., U.S.A) was placed in a test tube. Then, the crude receptor membrane fraction (20 μg as protein) and a test compound were added thereto. Nonspecific binding was measured by the addition of 125 nM ET-1. The reaction was carried out in solution B [30 mM HEPES, 0.15 M NaCl, 5 mM MgCl2, 0.5 mg/ml bacitracin, 1 mg/ml bovine serum albumin, pH 7.0) at 25° C. for 120 minutes. In order to separate the free radioactive ligand from the membrane-bound one, the reaction mixture was quickly filtered through a glass filter treated with 0.3% polyethylene-imine (GF/C; manufactured by Whatman Inc., U.S.A.) and washed twice with ice-cold solution B. Thereafter, the radioactivity remaining on the filter was measured with a gamma counter.

[2] = molecular target: T2, ETB receptor (Homo sapiens, UniProt P24530); experiment: binding of 125I-ET-1 to crude receptor membrane fraction from the human placenta (ETB); details: human placenta membranes, 125I-ET-1, 25° C., 120 minutes, pH 7.0
T2 construct: a crude receptor membrane fraction from the human placenta; from tissue; host or cells: human placenta, crude membrane fraction
T2 sequence (P24530 27-442): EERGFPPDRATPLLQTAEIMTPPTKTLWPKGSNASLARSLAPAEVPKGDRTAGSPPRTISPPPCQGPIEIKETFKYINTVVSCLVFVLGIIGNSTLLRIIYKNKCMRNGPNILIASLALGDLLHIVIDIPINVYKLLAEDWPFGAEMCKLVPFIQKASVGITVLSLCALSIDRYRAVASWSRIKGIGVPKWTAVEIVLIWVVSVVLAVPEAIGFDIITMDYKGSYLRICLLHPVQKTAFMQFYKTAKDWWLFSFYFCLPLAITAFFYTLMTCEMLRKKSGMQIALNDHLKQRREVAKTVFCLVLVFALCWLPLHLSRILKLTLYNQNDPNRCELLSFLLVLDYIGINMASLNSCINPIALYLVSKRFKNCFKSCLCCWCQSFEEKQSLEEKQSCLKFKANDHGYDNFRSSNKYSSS
Method: as §1, §2

[3] = molecular target: T3, phosphodiesterase III (Cavia porcellus, UniProt H0VIU9); experiment: inhibitory effect on phosphodiesterase III ([3H] cAMP conversion, enzyme fraction from guinea pig hearts); type: biochemical; details: for IC50: guinea pig heart enzyme, 0.1 μM [3H] cAMP, 30° C., 10 minutes, pH=8.0; for inhibitory effect on phosphodiesterase III: statement in words
T3 construct: hearts excised from male Hartley strain guinea pigs (400-600 g); from tissue; host or cells: guinea pig heart, 40,000 g supernatant, DEAE-cellulose fraction
T3 sequence (H0VIU9 1-1132): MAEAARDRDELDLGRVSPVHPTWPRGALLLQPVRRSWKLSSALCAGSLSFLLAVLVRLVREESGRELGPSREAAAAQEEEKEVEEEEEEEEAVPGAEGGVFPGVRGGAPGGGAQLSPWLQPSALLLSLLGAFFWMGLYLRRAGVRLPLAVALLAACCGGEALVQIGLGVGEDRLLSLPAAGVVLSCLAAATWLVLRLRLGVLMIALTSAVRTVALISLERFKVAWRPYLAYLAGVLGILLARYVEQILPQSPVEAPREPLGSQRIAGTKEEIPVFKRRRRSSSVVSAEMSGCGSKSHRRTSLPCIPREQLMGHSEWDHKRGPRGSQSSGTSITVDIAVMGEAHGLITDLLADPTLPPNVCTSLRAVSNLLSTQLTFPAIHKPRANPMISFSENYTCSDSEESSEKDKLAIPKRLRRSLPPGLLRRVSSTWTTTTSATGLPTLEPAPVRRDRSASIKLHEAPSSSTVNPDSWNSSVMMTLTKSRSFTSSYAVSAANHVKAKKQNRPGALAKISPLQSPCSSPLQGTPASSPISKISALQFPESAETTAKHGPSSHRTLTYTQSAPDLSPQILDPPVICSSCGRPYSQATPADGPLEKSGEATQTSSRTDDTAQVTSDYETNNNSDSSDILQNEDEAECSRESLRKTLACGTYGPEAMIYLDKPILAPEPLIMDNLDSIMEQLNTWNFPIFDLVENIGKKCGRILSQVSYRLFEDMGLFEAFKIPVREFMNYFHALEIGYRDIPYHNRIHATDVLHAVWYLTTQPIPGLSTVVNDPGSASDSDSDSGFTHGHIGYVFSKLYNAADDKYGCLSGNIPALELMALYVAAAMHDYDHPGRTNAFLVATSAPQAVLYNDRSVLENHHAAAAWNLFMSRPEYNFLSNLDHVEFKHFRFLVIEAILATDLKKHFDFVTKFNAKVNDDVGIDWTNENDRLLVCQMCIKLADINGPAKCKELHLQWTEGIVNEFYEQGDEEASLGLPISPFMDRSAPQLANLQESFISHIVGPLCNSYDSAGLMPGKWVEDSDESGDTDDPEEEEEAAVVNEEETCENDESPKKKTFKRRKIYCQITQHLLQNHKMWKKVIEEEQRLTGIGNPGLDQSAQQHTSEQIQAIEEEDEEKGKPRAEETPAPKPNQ
Method: Phosphodiesterase III was prepared according to the method of Frodsham et al. (Eur. J. Pharmacol., Vol. 211, pp. 383-391, 1992).
Specifically, hearts excised from male Hartley strain guinea pigs (400-600 g) were placed in 8 volumes of solution C [10 mM trishydroxymethyl)aminomethane-acetic acid buffer (pH=7.5), 2 mM magnesium chloride, 1 mM dithiothreitol, 2,000 units/ml aprotinin, 50 μM phenylmethylsulfonyl fluoride], minced with scissors, and homogenized three times for 10 seconds by means of a Polytron. The resulting homogenate was centrifuged at 40,000 g for 30 minutes, and the supernatant was applied onto a DEAE-cellulose column and eluted with a linear concentration gradient ranging from 0.2 M to 0.6 M sodium acetate (pH 6.5). The fractions eluted at 0.4-0.5 M were pooled and used as a phosphodiesterase III enzyme fraction.
Specifically, a test compound and the phosphodiesterase III enzyme fraction were added to 0.4 ml of a reaction solution [40 mM tris(hydroxymethyl)aminomethane-hydrochloric acid buffer (pH=8.0), 5 mM magnesium chloride, 1 mM dithiothreitol, 0.1 μM [^3 H] cAMP]. This mixture was reacted at 30° C. for 10 minutes. After completion of the reaction, 5'-nuclease was added thereto so as to convert [^3 H] 5'-AMP, which was the reaction product with phosphodiesterase III, to [^3 H] adenosine. Then, the [^3 H] cAMP and [^3 H] adenosine present in the reaction mixture were separated with the aid of an anion exchanger.

[4] = tested on: endothelin receptors; experiment: antagonism to endothelin receptors (statement in words, no subtype); type: binding
Method: as §1
as §2, with “The precipitate was suspended in solution A and used as a crude receptor membrane fraction, which was divided into portions and stored in a frozen state at -70° C. As a radioligand, 325 Bq of ^125 I-ET-1 (81.4 TBq/mmol; manufactured by DuPont-New England Nuclear, Boston, Mss., U.S.A) was placed in a test tube. Then, the crude receptor membrane fraction (20 μg as protein) and a test compound were added thereto.” left out, “The reaction was carried out in solution B [30 mM HEPES, 0.15 M NaCl, 5 mM MgCl2, 0.5 mg/ml bacitracin, 1 mg/ml bovine serum albumin, pH 7.0) at 25° C. for 120 minutes.” left out

| SMILES | IC50 [1] [nM] | IC50 [2] [nM] | IC50 [3] [nM] | inhibitory effect on phosphodiesterase III [3] | antagonism to endothelin receptors [4] |
| --- | --- | --- | --- | --- | --- |
| COc1cccc(Cn2nc(C(=O)O)c3c2-c2ccc(OCc4cncnc4)cc2CC3)c1 [Example 2, 4,5-dihydro-1-(3-methoxybenzyl)-7-(5-pyrimidinylmethoxy)-[1H]-benz[g]indazole-3-carboxylic acid] | 31 | 140 |  |  |  |
| CCOc1cccc(Cn2nc(C(=O)O)c3c2-c2ccc(OCc4cncnc4)cc2CC3)c1 [Example 14] | 16.8 | 115 |  |  |  |
| CCOc1cccc(C(CC)n2nc(C(=O)O)c3c2-c2ccc(OCc4cncnc4)cc2CC3)c1 (stereo not drawn) [Example 34, 4,5-dihydro-1-(3-ethoxy-α-ethylbenzyl)-7-(5-pyrimidinylmethoxy)-[1H]-benz[g]indazole-3-carboxylic acid] | 4.5 | 153 | 75 | inhibitory effect on phosphodiesterase III | excellent antagonism to endothelin receptors |
| CCOCC(c1cccc(OCC)c1)n1nc(C(=O)O)c2c1-c1ccc(OCc3cncnc3)cc1CC2 (stereo not drawn) [Example 41, 4,5-dihydro-1-(3-ethoxy-α-ethoxymethyl-benzyl)-7-(5-pyrimidinylmethoxy)-[1H]-benz[g]indazole-3-carboxylic acid] | 7.4 | 92 |  |  |  |
| CCOc1cccc(C(c2ccccn2)n2nc(C(=O)O)c3c2-c2ccc(OCc4cncnc4)cc2CC3)c1 (stereo not shown) [Example 70] | 2.5 | 11.3 | 580 | inhibitory effect on phosphodiesterase III | excellent antagonism to endothelin receptors |
